Reference: US11590116B2 (THERAVANCE BIOPHARMA R&D IP, LLC, priority 2019, dated 2023)

What was measured:
[1] = target: T1, recombinant human ALK5 (TGF-βR1) protein (Homo sapiens, UniProt P36897); experiment: Biochemical ALK5 (TGF-βR1) assay to measure pKi (LANCE Ultra ULight kinase assay); details: apparent pKi from pIC50 by Cheng-Prusoff, read-out: ALK5 pKi (converted)
T1 construct: purchased Life Technologies PR9075A
T1 sequence (P36897 34-503): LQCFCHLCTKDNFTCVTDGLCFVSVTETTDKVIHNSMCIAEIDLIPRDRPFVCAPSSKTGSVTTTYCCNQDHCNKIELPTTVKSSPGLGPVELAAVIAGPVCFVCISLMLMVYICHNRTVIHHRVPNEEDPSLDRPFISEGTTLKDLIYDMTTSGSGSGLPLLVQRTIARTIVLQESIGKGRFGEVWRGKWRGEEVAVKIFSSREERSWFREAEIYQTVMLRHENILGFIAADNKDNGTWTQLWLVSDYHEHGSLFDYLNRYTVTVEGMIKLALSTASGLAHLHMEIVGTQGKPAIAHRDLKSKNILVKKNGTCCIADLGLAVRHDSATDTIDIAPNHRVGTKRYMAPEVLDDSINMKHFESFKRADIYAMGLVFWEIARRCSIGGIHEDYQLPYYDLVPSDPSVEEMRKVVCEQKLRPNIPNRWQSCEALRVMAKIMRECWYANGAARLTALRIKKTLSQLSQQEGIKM
Summary of the method: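 After a 60 min room-temperature preincubation of ALK5 with compound, phosphorylation proceeds 60 min at 37 °C on ATP addition (125 μM as 5× stock). Detection: Eu-labelled phospho-Thr1342 Topo IIα antibody in EDTA buffer, pH 7.0; emission 665 nm.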

[2] = system: TGF-β-stimulated SMAD3 phosphorylation in BEAS-2B cells; experiment: Cellular ALK5 potency assay, inhibition of TGF-β stimulated pSMAD3 formation in BEAS-2B cells; assay type: cell-based; details: Homo sapiens; inhibition of TGF-β stimulated pSMAD3 formation, BEAS-2B cells; read-out: BEAS2B pIC50 (converted)
Summary of the method: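 Potency is reported as pIC50, derived from concentration-dependent reduction of pSMAD3 AlphaLISA signal against TGF-β-stimulated cells without compound. BEAS-2B cells received compound for 1 h before a 30-min stimulation with 10 ng/mL TGF-β.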

Row | Structure (SMILES) | Ki [1] | IC50 [2]
1 | CN[C@H]1CC[C@H](OC(=O)c2cnc3ccc(-c4cn[nH]c4-c4cccc(C)n4)cc3c2)CC1 [Compound 1221, [4-(methylamino)cyclohexyl] 6-[5-(6-methyl-2-pyridyl)-1H-pyrazol-4-yl]quinoline-3-carboxylate] | 0.0398 to 0.316 nM | < 20 nM
2 | Cc1cccc(-c2[nH]cnc2-c2ccc3ncc(-c4csc(C(=O)OCCN5CCNCC5)c4)cc3c2)n1 [Compound 1242, 2-piperazin-1-ylethyl 4-[6-[5-(6-methyl-2-pyridyl)-1H-imidazol-4-yl]-3-quinolyl]thiophene-2-carboxylate] | < 0.0316 nM | 25.1 to 158 nM
3 | CNCCn1cc(-c2cnc3ccc(-c4nnn(Cc5ccccc5)c4-c4cccc(C)n4)cc3c2)cn1 [Compound 314, 2-[4-[6-[1-benzyl-5-(6-methyl-2-pyridyl)triazol-4-yl]-3-quinolyl]pyrazol-1-yl]-N-methyl-ethanamine] | 3.98 to 31.6 nM | 1580 to 10000 nM
4 | Cc1cccc(-c2n[nH]cc2-c2ccc3ncc(-c4nc(C(F)(F)F)n5c4CNCC5)cc3n2)n1 [Compound 465, 2-[3-(6-methyl-2-pyridyl)-1H-pyrazol-4-yl]-7-[3-(trifluoromethyl)-5,6,7,8-tetrahydroimidazo[1,5-a]pyrazin-1-yl]-1,5-naphthyridine] | 0.0398 to 0.316 nM | 25.1 to 158 nM
5 | Cc1cccc(-c2n[nH]cc2-c2ccc3ncc(-c4cnco4)cc3n2)n1 [Compound 317, 5-[6-[3-(6-methyl-2-pyridyl)-1H-pyrazol-4-yl]-1,5-naphthyridin-3-yl]oxazole] | 0.0398 to 0.316 nM | < 20 nM
6 | Cc1cccc(-c2[nH]ncc2-c2ccc3nccc(C(=O)OC[C@H]4CCCN4)c3c2)n1 [Compound 1223, [(2R)-pyrrolidin-2-yl]methyl 6-[5-(6-methyl-2-pyridyl)-1H-pyrazol-4-yl]quinoline-4-carboxylate] | 3.98 to 31.6 nM | 25.1 to 158 nM
7 | Cc1cccc(-c2n[nH]cc2-c2ccc3ncc(N4CCC5(CCN(C(=O)OCc6ccccc6)C5)C4)cc3n2)n1 (stereo not shown) [Compound 124, benzyl 7-[6-[3-(6-methyl-2-pyridyl)-1H-pyrazol-4-yl]-1,5-naphthyridin-3-yl]-2,7-diazaspiro[4.4]nonane-2-carboxylate] | 0.0398 to 0.316 nM | 25.1 to 158 nM
8 | Cc1cccc(-c2n[nH]cc2-c2ccc3ncc(-n4cc(-c5ccccc5)nn4)cc3n2)n1 [Compound 133, 2-[3-(6-methyl-2-pyridyl)-1H-pyrazol-4-yl]-7-(4-phenyltriazol-1-yl)-1,5-naphthyridine] | 0.398 to 3.16 nM | 25.1 to 158 nM
9 | Cc1cccc(-c2n[nH]cc2-c2ccc3ncc(-c4c[nH]nn4)cc3n2)n1 [Compound 355, 2-[3-(6-methyl-2-pyridyl)-1H-pyrazol-4-yl]-7-(1H-triazol-4-yl)-1,5-naphthyridine] | < 0.0316 nM | < 20 nM
10 | Cc1cccc(-c2n[nH]cc2-c2ccc3ncc(N4CCN(C)CC4)cc3n2)n1 [Compound 654, 7-(4-methylpiperazin-1-yl)-2-[3-(6-methyl-2-pyridyl)-1H-pyrazol-4-yl]-1,5-naphthyridine] | 0.0398 to 0.316 nM | 25.1 to 158 nM
11 | Cc1cccc(-c2n[nH]cc2-c2ccc3ncc(N4CC[C@@H](N5CCCCC5)C4)cc3n2)n1 [Compound 542, 2-[3-(6-methyl-2-pyridyl)-1H-pyrazol-4-yl]-7-[(3R)-3-(1-piperidyl)pyrrolidin-1-yl]-1,5-naphthyridine] | < 0.0316 nM | 25.1 to 158 nM
12 | Cc1cccc(-c2n[nH]cc2-c2ccc3ncc(NCC(=O)N4CCOCC4)cc3n2)n1 [Compound 90, 2-[[6-[3-(6-methyl-2-pyridyl)-1H-pyrazol-4-yl]-1,5-naphthyridin-3-yl]amino]-1-morpholino-ethanone] | 0.398 to 3.16 nM | 25.1 to 158 nM
13 | Cc1cccc(-c2[nH]cnc2-c2ccc3ncc(-c4nc(C(=O)OCCN5CCC[C@H](N)C5)cs4)cc3c2)n1 [Compound 1172, 2-[(3S)-3-amino-1-piperidyl]ethyl 2-[6-[5-(6-methyl-2-pyridyl)-1H-imidazol-4-yl]-3-quinolyl]thiazole-4-carboxylate] | < 0.0316 nM | 200 to 1260 nM
14 | FC(F)(F)c1cccc(-c2n[nH]cc2-c2ccc3ncc(N4CCCNCC4)cc3n2)n1 [Compound 383, 7-(1,4-diazepan-1-yl)-2-[3-[6-(trifluoromethyl)-2-pyridyl]-1H-pyrazol-4-yl]-1,5-naphthyridine] | 0.398 to 3.16 nM | 200 to 1260 nM
15 | Cc1cccc(-c2n[nH]cc2-c2ccc3ncc(-c4ccnc(C(C)(C)C#N)c4)cc3n2)n1 [Compound 341, 2-methyl-2-[4-[6-[3-(6-methyl-2-pyridyl)-1H-pyrazol-4-yl]-1,5-naphthyridin-3-yl]-2-pyridyl]propanenitrile] | < 0.0316 nM | < 20 nM
16 | Cc1cccc(-c2n[nH]cc2-c2ccc3ncc(-c4cn(Cc5ccccc5)nn4)cc3n2)n1 [Compound 48, 7-(l-benzyltriazol-4-yl)-2-[3-(6-methyl-2-pyridyl)-1H-pyrazol-4-yl]-1,5-naphthyridine] | 0.0398 to 0.316 nM | < 20 nM
17 | Cc1cccc(-c2[nH]cnc2-c2ccc3ncc(-c4ccc(C(=O)OC5CNC5)cc4)cc3c2)n1 [Compound 663, azetidin-3-yl 4-[6-[5-(6-methyl-2-pyridyl)-1H-imidazol-4-yl]-3-quinolyl]benzoate] | 0.0398 to 0.316 nM | 25.1 to 158 nM
18 | Cc1cccc(-c2n[nH]cc2-c2ccc3ncc(-c4ccc(N)nc4)cc3n2)n1 [Compound 562, 5-[6-[3-(6-methyl-2-pyridyl)-1H-pyrazol-4-yl]-1,5-naphthyridin-3-yl]pyridin-2-amine] | < 0.0316 nM | < 20 nM

Now from value to compound, other results behind:

Row | Ki [1] | Structure (SMILES) | IC50 [2]
19 | 0.0398 to 0.316 nM | Cc1cccc(-c2[nH]cnc2-c2ccc3ncc(NCCN4CC5(CC(N)C5)C4)cc3c2)n1 [Compound 715, N-[2-(6-amino-2-azaspiro[3.3]heptan-2-yl)ethyl]-6-[5-(6-methyl-2-pyridyl)-1H-imidazol-4-yl]quinolin-3-amine] | 200 to 1260 nM
20 | < 0.0316 nM | Cc1cccc(-c2[nH]cnc2-c2ccc3ncc(-c4csc(C(=O)OC[C@@H]5CCCN5)c4)cc3c2)n1 [Compound 1183, [(2S)-pyrrolidin-2-yl]methyl 4-[6-[5-(6-methyl-2-pyridyl)-1H-imidazol-4-yl]-3-quinolyl]thiophene-2-carboxylate] | 25.1 to 158 nM
21 | 0.0398 to 0.316 nM | Cc1cccc(-c2[nH]cnc2-c2ccc3ncc(NCCN(C)C4CCNC4)cc3c2)n1 (racemic) [Compound 537, N′-methyl-N-[6-[5-(6-methyl-2-pyridyl)-1H-imidazol-4-yl]-3-quinolyl]-N′-[rac-(3R)-pyrrolidin-3-yl]ethane-1,2-diamine] | 200 to 1260 nM
22 | 0.0398 to 0.316 nM | Cc1cccc(-c2[nH]cnc2-c2ccc3ncc(C(=O)OC[C@H]4CC[C@@H](N)CC4)cc3c2)n1 [Compound 770, (4-aminocyclohexyl)methyl 6-[5-(6-methyl-2-pyridyl)-1H-imidazol-4-yl]quinoline-3-carboxylate] | 25.1 to 158 nM
23 | 3.98 to 31.6 nM | Cc1cccc(-c2[nH]cnc2-c2ccc3ncc(C(=O)O)cc3c2)n1 [Compound 796, 6-[5-(6-methyl-2-pyridyl)-1H-imidazol-4-yl]quinoline-3-carboxylic Acid] | 1580 to 10000 nM
24 | 0.0398 to 0.316 nM | CCOC(=O)C1CC=C(c2cnc3ccc(-c4nc[nH]c4-c4cccc(C)n4)cc3c2)CC1 (stereo not shown) [Compound 167, ethyl 4-[6-[5-(6-methyl-2-pyridyl)-1H-imidazol-4-yl]-3-quinolyl]cyclohex-3-ene-1-carboxylate] | 25.1 to 158 nM
25 | 0.0398 to 0.316 nM | Cc1cccc(-c2[nH]cnc2-c2ccc3ncc(N)cc3c2)n1 [Compound 594, 6-[5-(6-methyl-2-pyridyl)-1H-imidazol-4-yl]quinolin-3-amine] | < 20 nM
26 | 0.0398 to 0.316 nM | Cc1cccc(-c2[nH]cnc2-c2ccc3ncc(-c4ccc(C(=O)O[C@@H]5CCNC5)nc4)cc3c2)n1 [Compound 1110, [(3R)-pyrrolidin-3-yl] 5-[6-[5-(6-methyl-2-pyridyl)-1H-imidazol-4-yl]-3-quinolyl]pyridine-2-carboxylate] | 200 to 1260 nM
27 | 0.0398 to 0.316 nM | Cc1cccc(-c2[nH]cnc2-c2ccc3ncc(NCCN4CCN(C(C)C)CC4)cc3c2)n1 [Compound 467, N-[2-(4-isopropylpiperazin-1-yl)ethyl]-6-[5-(6-methyl-2-pyridyl)-1H-imidazol-4-yl]quinolin-3-amine] | 25.1 to 158 nM
28 | 0.0398 to 0.316 nM | Cc1cccc(-c2[nH]cnc2-c2ccc3ncc(C4=CCC5(CCNCC5)CC4)cc3c2)n1 [Compound 392, 9-(6-(5-(6-methylpyridin-2-yl)-1H-imidazol-4-yl)quinolin-3-yl)-3-azaspiro[5.5]undec-8-ene] | 25.1 to 158 nM
29 | 0.0398 to 0.316 nM | Cc1cccc(-c2[nH]cnc2-c2ccc3ncc(-c4nc5c(s4)CNCC5)cc3c2)n1 [Compound 1068, 2-[6-[5-(6-methyl-2-pyridyl)-1H-imidazol-4-yl]-3-quinolyl]-4,5,6,7-tetrahydrothiazolo[5,4-c]pyridine] | < 20 nM
